{"source": "patent US8604048B2", "about": "“Pyridocarbazole type compounds and applications thereof” (Centre National de la Recherche Scientifique, priority 2009, dated 2013)", "tested_on": "microtubules of HeLa cells", "assay": "Stability of the microtubules in cells, qualitative double-blind evaluation using a microscope", "assay_type": "cell-based, Human", "details": "general statement", "experimental": "6. a step of analysis of the effect of the compound to be tested on the dynamics of the microtubule network. For this, HeLa cells are incubated for 2 h with the compound to be tested, then optionally treated with 10 μM nocodazole for 30 minutes.\nCells grown for two days on glass coverslips, were incubated 3 minutes at 37° C. with or without OPT buffer (Pipes 80 mM, EGTA 1 mM, MgCl 1 mM, Triton X-100 0.5% and glycerol 10% pH 6.8), and then fixed in methanol previously maintained at −20° C. for 10 minutes. The cells are then washed with PBS/0.1% Tween® 20 and incubated for 15 minutes minimum at room temperature with the appropriate primary antibodies (cf. the antibodies from Table III) diluted in a solution of PBS/0.3% BSA/0.02% NaN3. The cells are then washed 3 times with PBS/0.1% Tween® 20. They are incubated for 15 minutes at room temperature with a solution of secondary antibodies (cf. the antibodies from Table IV) and of Hoechst at a final concentration of 1 μg/ml, diluted in PBS/0.3% BSA/0.02% NaN3. […]\nHeLa cells are seeded in black-bottomed black 96-well microplates (Greiner 655086) by distributing 90 μl per well of a cell solution containing 40 000 cells/ml, and incubated at 37° C. with 5% CO2. […] The various fluorescence intensities are measured using the FLUOstar OPTIMA reader. […]", "data": [{"smiles": "Cc1c2ccncc2c(C)c2c1[nH]c1ccccc12", "note": "[ellipticine]", "values": [{"measurement": "Effect on the stabilization of cell microtubules", "value": "does not have any effect"}]}]}
